Data from patent US9975888B2, “Aryl linked imidazole and triazole derivatives and methods of use thereof for improving the pharmacokinetics of a drug” (MERCK SHARP & DOHME CORP., priority 2013, dated 2018).

Legend:
Type in all cases: biochemical
CYP2D6 = molecular target: T1, CYP2D6 (Homo sapiens, UniProt P10635); assay: Cocktail assay for CYPs, dextromethorphan O-demethylation (CYP2D6), human liver microsomes; conditions: 5 μM dextromethorphan, 0.1 mg/mL human liver microsomes, 10 min at 37° C.; read-out: CYP IC50 (nM) 2D6
T1 construct: 0.1 mg/mL protein human liver microsomes (BD Gentest); tissue BD Gentest; host or cells: human liver microsomes
In short: (§1)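 Pooled human liver microsomes (0.1 mg/mL) with a probe cocktail of 10 μM phenacetin, 5 μM dextromethorphan and 2 μM midazolam plus NADPH, pH 7.4, 10 min at 37° C. Each metabolite was quantified by LC/MS/MS against a tolbutamide internal standard. IC50 came from % inhibition at 6 concentrations (e.g. 0.0032–10 μM) by non-linear regression.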

CYP2C19 = molecular target: T2, CYP2C19 (Homo sapiens, UniProt P33261); assay: Cocktail assay for CYPs, mephenytoin 4′-hydroxylation (CYP2C19), human liver microsomes; conditions: 30 μM mephenytoin, 0.1 mg/mL human liver microsomes, 10 min at 37° C.; read-out: CYP IC50 (nM) 2C19
T2 construct: 0.1 mg/mL protein human liver microsomes (BD Gentest); tissue BD Gentest; host or cells: human liver microsomes
In short: (§2)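 Pooled human liver microsomes (0.1 mg/mL) with probe cocktail incl. 5 μM diclofenac (CYP2C9) and 30 μM mephenytoin (CYP2C19), 1 mM NADPH, pH 7.4 phosphate buffer, 10 min at 37° C. Metabolites quantified by LC/MS/MS against internal standard; % inhibition versus no-inhibitor control, IC50 by non-linear regression.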

CYP3A4 [1] = molecular target: T3, CYP3A4 (Homo sapiens, UniProt P08684); assay: Cocktail assay for CYPs, midazolam 1′-hydroxylation (CYP3A4), human liver microsomes; set-up: 0.1 mg/mL protein human liver microsomes (BD Gentest); tissue BD Gentest; host or cells: human liver microsomes; conditions: 2 μM midazolam, 0.1 mg/mL human liver microsomes, 10 min at 37° C.; read-out: CYP IC50 (nM) 3A4 (MDZ)
In short: as §1
Target sequence in this assay (P08684 whole entry): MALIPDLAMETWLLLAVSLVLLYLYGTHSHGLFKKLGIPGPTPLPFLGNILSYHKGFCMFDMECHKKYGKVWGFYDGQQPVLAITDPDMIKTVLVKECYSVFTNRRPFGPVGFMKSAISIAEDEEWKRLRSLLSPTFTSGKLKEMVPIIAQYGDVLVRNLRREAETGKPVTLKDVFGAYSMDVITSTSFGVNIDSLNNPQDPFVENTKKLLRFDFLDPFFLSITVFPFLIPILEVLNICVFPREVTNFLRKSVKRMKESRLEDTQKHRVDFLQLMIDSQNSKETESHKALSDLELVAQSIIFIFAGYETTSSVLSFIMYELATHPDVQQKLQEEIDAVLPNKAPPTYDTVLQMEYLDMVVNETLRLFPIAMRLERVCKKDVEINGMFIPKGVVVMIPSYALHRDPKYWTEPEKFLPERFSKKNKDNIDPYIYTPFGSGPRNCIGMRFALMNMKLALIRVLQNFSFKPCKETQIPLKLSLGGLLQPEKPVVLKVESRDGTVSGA

CYP2C9 = molecular target: T4, CYP2C9 (Homo sapiens, UniProt P11712); assay: Cocktail assay for CYPs, diclofenac 4′-hydroxylation (CYP2C9), human liver microsomes; conditions: 5 μM diclofenac, 0.1 mg/mL human liver microsomes, 10 min at 37° C.; read-out: CYP IC50 (nM) 2C9
T4 construct: 0.1 mg/mL protein human liver microsomes (BD Gentest); tissue BD Gentest; host or cells: human liver microsomes
In short: as §2

CYP1A2 = molecular target: T5, CYP1A2 (Homo sapiens, UniProt P05177); assay: Cocktail assay for CYPs, phenacetin O-deethylation (CYP1A2), human liver microsomes; conditions: 10 μM phenacetin, 0.1 mg/mL human liver microsomes, 10 min at 37° C.; read-out: CYP IC50 (nM) 1A2
T5 construct: 0.1 mg/mL protein human liver microsomes (BD Gentest); tissue BD Gentest; host or cells: human liver microsomes
T5 sequence (P05177 1-516): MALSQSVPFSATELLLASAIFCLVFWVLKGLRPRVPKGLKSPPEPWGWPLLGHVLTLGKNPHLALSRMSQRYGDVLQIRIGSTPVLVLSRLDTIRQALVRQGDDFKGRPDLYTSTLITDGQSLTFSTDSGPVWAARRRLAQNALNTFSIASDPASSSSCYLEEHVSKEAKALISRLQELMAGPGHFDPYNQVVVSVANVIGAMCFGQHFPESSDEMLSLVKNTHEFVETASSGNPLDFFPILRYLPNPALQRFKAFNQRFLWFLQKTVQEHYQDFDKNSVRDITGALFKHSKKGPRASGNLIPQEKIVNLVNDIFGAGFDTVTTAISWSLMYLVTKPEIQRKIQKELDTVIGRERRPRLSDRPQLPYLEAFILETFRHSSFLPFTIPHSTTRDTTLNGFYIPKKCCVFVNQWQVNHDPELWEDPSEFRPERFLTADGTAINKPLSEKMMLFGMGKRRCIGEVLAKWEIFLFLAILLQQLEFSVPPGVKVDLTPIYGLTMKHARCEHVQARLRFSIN
In short: as §1

CYP3A4 [2] = molecular target: T3, CYP3A4; assay: IC50 vs CYP3A by inhibition of lopinavir metabolism in human liver microsomes; set-up: 0.01 mg/mL protein human liver microsomes (BD Gentest); tissue BD Gentest; host or cells: human liver microsomes; conditions: 1.5 μM lopinavir, 0.01 mg/mL human liver microsomes, 8 min at 37° C.; read-out: CYP IC50 (nM) 3A4 (LPV)
In short: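 Human liver microsomes (0.01 mg/mL) with 1.5 μM lopinavir, 1 mM NADPH, 3.3 mM MgCl2 in 100 mM potassium phosphate pH 7.4, 8 min at 37 °C, six compound concentrations. Summed M2/M3/M4 hydroxy metabolites quantified by LC/MS/MS against tolbutamide; % inhibition normalised between no-inhibitor and 5 μM ketoconazole controls, IC50 by non-linear regression.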
Target sequence in this assay (P08684 2-503): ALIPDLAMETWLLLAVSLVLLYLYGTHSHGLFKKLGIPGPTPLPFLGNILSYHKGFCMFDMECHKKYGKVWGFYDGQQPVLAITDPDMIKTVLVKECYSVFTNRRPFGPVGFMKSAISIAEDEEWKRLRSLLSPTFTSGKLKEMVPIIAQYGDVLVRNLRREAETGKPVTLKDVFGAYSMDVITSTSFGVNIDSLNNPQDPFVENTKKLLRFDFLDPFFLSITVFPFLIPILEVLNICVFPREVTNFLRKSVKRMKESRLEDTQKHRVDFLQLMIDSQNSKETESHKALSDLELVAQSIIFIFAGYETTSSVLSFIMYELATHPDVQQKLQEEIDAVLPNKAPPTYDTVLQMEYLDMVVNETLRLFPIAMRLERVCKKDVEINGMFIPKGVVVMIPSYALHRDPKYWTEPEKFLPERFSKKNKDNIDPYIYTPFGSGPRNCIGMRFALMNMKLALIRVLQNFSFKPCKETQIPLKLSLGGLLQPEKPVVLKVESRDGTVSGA

T2 sequence (P33261 whole entry): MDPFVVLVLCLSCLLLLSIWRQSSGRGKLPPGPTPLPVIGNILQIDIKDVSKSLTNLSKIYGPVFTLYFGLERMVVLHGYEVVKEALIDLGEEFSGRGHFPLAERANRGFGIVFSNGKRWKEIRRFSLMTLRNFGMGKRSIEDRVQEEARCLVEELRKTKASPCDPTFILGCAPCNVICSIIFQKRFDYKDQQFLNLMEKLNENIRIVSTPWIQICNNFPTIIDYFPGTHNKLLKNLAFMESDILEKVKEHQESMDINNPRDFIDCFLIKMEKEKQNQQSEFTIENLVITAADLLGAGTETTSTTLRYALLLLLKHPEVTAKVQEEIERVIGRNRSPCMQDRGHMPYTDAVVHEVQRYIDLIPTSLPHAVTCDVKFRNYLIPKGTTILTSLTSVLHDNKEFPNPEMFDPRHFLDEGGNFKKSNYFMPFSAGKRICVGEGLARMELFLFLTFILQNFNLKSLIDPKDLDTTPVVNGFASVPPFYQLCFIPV
T4 sequence (P11712 whole entry): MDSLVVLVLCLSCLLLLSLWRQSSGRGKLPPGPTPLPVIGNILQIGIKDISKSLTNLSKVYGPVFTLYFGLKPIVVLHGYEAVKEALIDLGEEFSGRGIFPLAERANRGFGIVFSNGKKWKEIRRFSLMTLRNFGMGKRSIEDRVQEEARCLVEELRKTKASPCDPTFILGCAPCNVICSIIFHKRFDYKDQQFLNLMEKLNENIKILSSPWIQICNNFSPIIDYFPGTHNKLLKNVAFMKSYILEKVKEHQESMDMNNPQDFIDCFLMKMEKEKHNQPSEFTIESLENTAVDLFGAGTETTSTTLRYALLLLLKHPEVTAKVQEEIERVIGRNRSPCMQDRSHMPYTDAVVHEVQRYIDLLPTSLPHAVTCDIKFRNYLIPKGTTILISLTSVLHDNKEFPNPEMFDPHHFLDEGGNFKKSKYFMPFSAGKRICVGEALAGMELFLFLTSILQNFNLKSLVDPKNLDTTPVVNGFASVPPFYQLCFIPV
T1 sequence (P10635 whole entry): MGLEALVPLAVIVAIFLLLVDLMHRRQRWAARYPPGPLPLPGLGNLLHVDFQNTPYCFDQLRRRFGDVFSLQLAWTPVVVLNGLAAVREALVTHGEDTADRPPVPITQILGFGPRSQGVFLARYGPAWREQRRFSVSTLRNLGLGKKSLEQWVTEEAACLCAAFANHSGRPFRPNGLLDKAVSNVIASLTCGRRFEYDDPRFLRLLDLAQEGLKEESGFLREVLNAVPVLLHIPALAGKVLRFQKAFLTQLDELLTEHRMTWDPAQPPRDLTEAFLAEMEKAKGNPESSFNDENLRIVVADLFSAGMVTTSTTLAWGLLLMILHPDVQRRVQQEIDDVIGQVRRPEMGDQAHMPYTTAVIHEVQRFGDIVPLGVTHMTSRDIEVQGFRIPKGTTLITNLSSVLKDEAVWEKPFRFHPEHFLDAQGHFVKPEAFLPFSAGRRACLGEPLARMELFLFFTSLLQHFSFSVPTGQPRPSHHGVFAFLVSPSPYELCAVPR

IC50 (CYP2D6) [nM]	IC50 (CYP2C19) [nM]	IC50 (CYP3A4 [1]) [nM]	IC50 (CYP2C9) [nM]	IC50 (CYP1A2) [nM]	IC50 (CYP3A4 [2]) [nM]	Structure (SMILES)
> 10000	> 10000	38.5	> 10000	> 10000	≥ 100	COCCn1cncc1-c1ccccc1C1CCCN1S(=O)(=O)c1cnc(NC(C)=O)s1 (stereo not drawn) [Compound 20, N-(5-((2-(2-(1-(2-methoxyethyl)-1H-imidazol-5-yl)phenyl)pyrrolidin-1-yl)sulfonyl)thiazol-2-yl)acetamide]
2420	4400	5.5	1900	> 10000	1	O=S(=O)(c1ccc(NCC(O)C2CC2)nc1)N1CCCC1c1ccccc1-c1cncn1CCc1ccc(F)cc1 (single isomer, unassigned) [Compound 34b, 1-cyclopropyl-2-((5-(((R or S)-2-(2-(1-(4-fluorophenethyl)-1H-imidazol-5-yl)phenyl)pyrrolidin-1-yl)sulfonyl)pyridin-2-yl)amino)ethanol]
3700	1680	19.4	1900	7690	7	O=C(Oc1ccc(Cl)cc1)N1CCCC1c1ccccc1-c1cncn1CCc1ccc(F)cc1 (stereo not drawn) [Compound 36, 4-chlorophenyl 2-(2-(1-(4-fluorophenethyl)-1H-imidazol-5-yl)phenyl) pyrrolidine-1-carboxylate]
139	219	6.63	61.6	1080	0.84	O=C(NCc1ccc(S(=O)(=O)N2CCCC2c2cccc(-c3cncn3CCc3ccc(F)cc3)c2)s1)c1ccccc1 (single isomer, unassigned) [Compound 55a, (R or S)-N-((5-((2-(3-(1-(4-fluorophenethyl)-1H-imidazol-5-yl)phenyl)pyrrolidin-1-yl)sulfonyl)thiophen-2-yl)methyl) benzamide]
4900	9230	18.5	1260	> 10000	8.9	O=S(=O)(c1cnc(N2CCN3C[C@H](O)C[C@H]3C2)s1)N1CCc2cccc(-c3cncn3CCc3ccc(F)cc3)c2C1 [Compound 65, (7R,8aS)-2-(5-((8-(1-(4-fluorophenethyl)-1H-imidazol-5-yl)-3,4-dihydroisoquinolin-2(1H)-yl)sulfonyl)thiazol-2-yl)octahydropyrrolo[1,2-a]pyrazin-7-ol]
3300	> 10000	43.4	4560	> 10000	27.4	Fc1ccc(CCn2cncc2-c2ccccc2C2CCCN2)cc1 (stereo not drawn) [Compound 40, 1-(4-fluorophenethyl)-5-(2-(pyrrolidin-2-yl)phenyl)-1H-imidazole]
2500	1010	14.9	2330	2080	16.7	O=C(C1CC1)N1CCCC1c1cccc(-c2cncn2CCc2ccc(F)cc2)c1 (stereo not drawn) [Compound 47, cyclopropyl(2-(3-(1-(4-fluorophenethyl)-1H-imidazol-5-yl)phenyl)pyrrolidin-1-yl)methanone]
6990	2390	3.5	1520	> 10000	0.7	CN(C)c1ccc(S(=O)(=O)N2CCCC2c2ccccc2-c2cncn2CCc2ccc(F)cc2)cn1 (single isomer, unassigned) [Compound 28a, (R or S)-5-((2-(2-(1-(4-fluorophenethyl)-1H-imidazol-5-yl)phenyl)pyrrolidin-1-yl)sulfonyl)-N,N-dimethylpyridin-2-amine]
6500	> 10000	22.5	2890	> 10000	12.6	O=S(=O)(c1ccc(N2CCC(O)CC2)nc1)N1CCCC1c1ccccc1-c1cncn1CCc1ccc(F)cc1 (single isomer, unassigned) [Compound 33, (R or S)-1-(5-((2-(2-(1-(4-fluorophenethyl)-1H-imidazol-5-yl)phenyl)pyrrolidin-1-yl)sulfonyl)pyridin-2-yl) piperidin-4-ol]
